Data on 35 molecules can be found in patent US8158783B2, “MTP inhibiting tetrahydro-naphthalene-1-carboxylic acid derivatives” (Janssen Pharmaceutica N.V., priority 2006, dated 2012).

SMILES strings stand for the structures.

For experiment [1], the system named is secretion of ApoB, HepG2 cells. Nature of the experiment: Quantification of the secretion of ApoB in HepG2 cells. Type of experiment: cell-based. The conditions noted are these: Homo sapiens, 24 hours of incubation, pIC50 = -log IC50. The procedure: HepG2 cells were cultured in 24-well plates in MEM Rega 3 containing 10% fetal calf serum. At 70% confluency, the medium was changed and the test compound or carrier (DMSO, 0.4% final concentration) was added. After 24 hours of incubation, the medium was transferred to Eppendorf tubes and cleared by centrifugation. A sheep antibody directed against either apoB was added to the supernatant and the mixture was kept at 8° C. for 24 hours. Then, rabbit anti-sheep antibody was added and the immune complex was allowed to precipitate for 24 hours at 8° C. The immunoprecipitate was pelleted by centrifugation for 25 minutes at 1320 g and washed twice with a buffer containing 40 mM Mops, 40 mM NaH2PO4, 100 mM NaF, 0.2 mM DTT, 5 mM EDTA, 5 mM EGTA, 1% Triton-X-100, 0.5% sodium deoxycholate (DOC), 0.1% SDS, 0.2 mM leupeptin and 0.2 mM PMSF. Radioactivity in the pellet was quantified by liquid scintillation counting.

The target in experiment [2] is MTP (Homo sapiens, UniProt P55157). In words: MTP assay (triglyceride transfer from donor to acceptor vesicles). Type of experiment: biochemical. The conditions noted are these: MTP activity, [14C]-triglyceride transfer between vesicles, 37° C. The procedure:
MTP activity was measured using an assay similar to one described by J. R. Wetterau and D. B. Zilversmit in Chemistry and Physics of Lipids, 38, 205-222 (1985). To prepare the donor and acceptor vesicles, the appropriate lipids in chloroform were put into a glass test tube and dried under a stream of N2. A buffer containing 15 mM Tris-HCl pH 7.5, 1 mM EDTA, 40 mM NaCl, 0.02% NaN3 (assay buffer) was added to the dried lipid. The mixture was vortexed briefly and the lipids were then allowed to hydrate for 20 min on ice. Vesicles were then prepared by bath sonication (Branson 2200) at room temperature for maximum 15 min. Butylated hydroxytoluene was included in all vesicle preparations at a concentration of 0.1%. The lipid transfer assay mixture contained donor vesicles (40 nmol phosphatidylcholine, 7.5 mol % of cardiolipin and 0.25 mol % glycerol tri[1-^14C]-oleate), acceptor vesicles (240 nmol phosphatidylcholine) and 5 mg BSA in a total volume of 675 μl in a 1.5 ml microcentrifuge tube. Test compounds were added dissolved in DMSO (0.13% final concentration). After 5 minutes of pre-incubation at 37° C., the reaction was started by the addition of MTP in 100 μl dialysis buffer. The reaction was stopped by the addition of 400 μl DEAE-52 cellulose pre-equilibrated in 15 mM Tris-HCl pH 7.5, 1 mM EDTA, 0.02% NaN3 (1:1, vol/vol). The mixture was agitated for 4 min and centrifuged for 2 min at maximum speed in an Eppendorf centrifuge (4° C.) to pellet the DEAE-52-bound donor vesicles. An aliquot of the supernatant containing the acceptor liposomes was counted and the [^14C]-counts were used to calculate the percent triglyceride transfer from donor to acceptor vesicles.

Chain of MTP (P55157 19-894, species assumed): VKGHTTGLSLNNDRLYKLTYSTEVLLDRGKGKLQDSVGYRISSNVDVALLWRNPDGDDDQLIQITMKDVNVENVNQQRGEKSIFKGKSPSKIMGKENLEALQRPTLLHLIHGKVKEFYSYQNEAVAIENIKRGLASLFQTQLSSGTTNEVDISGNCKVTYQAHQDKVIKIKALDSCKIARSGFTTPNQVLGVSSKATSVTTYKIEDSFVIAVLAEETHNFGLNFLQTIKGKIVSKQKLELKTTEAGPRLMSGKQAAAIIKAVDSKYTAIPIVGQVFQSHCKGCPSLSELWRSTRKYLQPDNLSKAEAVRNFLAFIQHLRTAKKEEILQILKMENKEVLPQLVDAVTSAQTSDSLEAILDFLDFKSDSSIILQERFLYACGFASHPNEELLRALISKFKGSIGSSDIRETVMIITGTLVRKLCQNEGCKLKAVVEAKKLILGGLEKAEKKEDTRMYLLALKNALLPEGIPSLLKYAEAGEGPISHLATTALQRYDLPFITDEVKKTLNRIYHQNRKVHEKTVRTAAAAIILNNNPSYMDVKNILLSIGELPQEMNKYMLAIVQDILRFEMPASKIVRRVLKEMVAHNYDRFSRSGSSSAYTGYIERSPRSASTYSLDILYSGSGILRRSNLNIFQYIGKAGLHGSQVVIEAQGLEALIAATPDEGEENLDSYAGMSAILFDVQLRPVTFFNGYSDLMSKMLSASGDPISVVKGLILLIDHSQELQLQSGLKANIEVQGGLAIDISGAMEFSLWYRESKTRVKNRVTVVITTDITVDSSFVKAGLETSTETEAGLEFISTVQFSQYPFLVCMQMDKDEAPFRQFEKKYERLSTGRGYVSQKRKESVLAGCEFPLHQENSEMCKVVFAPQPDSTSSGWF
Chain of MTP (P07237 18-508 partner, species assumed): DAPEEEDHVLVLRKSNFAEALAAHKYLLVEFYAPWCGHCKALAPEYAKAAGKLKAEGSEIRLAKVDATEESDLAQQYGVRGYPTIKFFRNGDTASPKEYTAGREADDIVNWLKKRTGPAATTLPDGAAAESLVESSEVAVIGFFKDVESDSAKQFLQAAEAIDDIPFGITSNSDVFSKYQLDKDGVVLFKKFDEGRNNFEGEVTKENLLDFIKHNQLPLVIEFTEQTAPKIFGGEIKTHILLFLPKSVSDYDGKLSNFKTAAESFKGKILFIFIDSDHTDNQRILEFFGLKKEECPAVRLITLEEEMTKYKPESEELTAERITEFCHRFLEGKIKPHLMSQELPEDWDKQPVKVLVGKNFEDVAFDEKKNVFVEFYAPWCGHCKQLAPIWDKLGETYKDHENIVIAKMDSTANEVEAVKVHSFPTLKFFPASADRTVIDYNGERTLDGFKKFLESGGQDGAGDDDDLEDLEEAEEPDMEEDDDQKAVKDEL

Consider `CCOC(=O)[C@@]1(c2ccccc2)CC[C@H](C(=O)NCCNC(=O)c2ccccc2OC)c2ccccc21` (stereo in doubt) [compound 25], for which the IC50 (commonly the concentration that gives 50% inhibition) in experiment [1] was 17.3 nM; in experiment [2] it was 6.52 nM.

`CCOC(=O)[C@]1(c2ccccc2)CC[C@@H](C(=O)NCCNC(=O)c2ccccc2OC)c2ccccc21` (stereo in doubt) [compound 26]: the IC50 is 560 nM in experiment [1] and 173 nM in experiment [2].

Turning to `CCOC(=O)[C@@]1(c2ccccc2)CC[C@H](C(=O)N(C)CCCNC(=O)c2ccccc2OC)c2ccccc21` (stereo in doubt) [compound 28], the concentration for half-maximal inhibition (IC50) is 95.9 nM in experiment [1] and 7.18 nM in experiment [2].

With `CCOC(=O)[C@]1(c2ccccc2)CC[C@@H](C(=O)NCCNC(=O)c2ccccc2)c2ccccc21` [compound 1], in experiment [2], the midpoint of inhibition, the IC50, lay at 1250 nM.

As for `CCOC(=O)[C@]1(c2ccccc2)CC[C@@H](C(=O)NCCNC(=O)c2ccccc2OC)c2ccccc21` [compound 2], it took 406 nM to reach half-maximal inhibition in experiment [2] (IC50).

As for `CCOC(=O)[C@]1(c2ccccc2)CC[C@@H](C(=O)NCCNC(=O)c2ccccc2-c2ccc(C(F)(F)F)cc2)c2ccccc21` [compound 3], in experiment [2], the IC50 was 208 nM.

As to `CCOC(=O)[C@]1(c2ccccc2)CC[C@@H](C(=O)NCCCNC(=O)c2ccccc2)c2ccccc21` [compound 4], the IC50 in experiment [1] is 317 nM; in experiment [2] it was 22.2 nM.

Regarding `CCOC(=O)[C@]1(c2ccccc2)CC[C@@H](C(=O)NCCCNC(=O)c2ccccc2OC)c2ccccc21` [compound 5], the values for the IC50 in experiment [1] and in experiment [2] were 192 nM and 9.38 nM, respectively.

On to `CCOC(=O)[C@]1(c2ccccc2)CC[C@@H](C(=O)NCCCNC(=O)c2ccccc2-c2ccc(C(F)(F)F)cc2)c2ccccc21` [compound 6], for which the results for the IC50 in experiment [1] and in experiment [2] were 42.7 nM and 9.59 nM, respectively.

Regarding `CCOC(=O)[C@]1(c2ccccc2)CC[C@@H](C(=O)N(C)CCNC(=O)c2ccccc2)c2ccccc21` [compound 7], the IC50 in experiment [1] is > 1000 nM; in experiment [2] it was 85.5 nM.

As to `CCOC(=O)[C@]1(c2ccccc2)CC[C@@H](C(=O)N(C)CCNC(=O)c2ccccc2OC)c2ccccc21` [compound 8], the half-maximal inhibitory concentration (IC50) in experiment [1] is > 1000 nM; in experiment [2], 27 nM.

As for `CCOC(=O)[C@]1(c2ccccc2)CC[C@@H](C(=O)N(C)CCNC(=O)c2ccccc2-c2ccc(C(F)(F)F)cc2)c2ccccc21` [compound 9], the IC50 is 128 nM in experiment [1] and 19.1 nM in experiment [2].

As for `CCOC(=O)[C@]1(c2ccccc2)CC[C@@H](C(=O)N(C)CCCNC(=O)c2ccccc2)c2ccccc21` [compound 10], the IC50 in experiment [1] was 746 nM; in experiment [2], 10 nM.

`CCOC(=O)[C@]1(c2ccccc2)CC[C@@H](C(=O)N(C)CCCNC(=O)c2ccccc2OC)c2ccccc21` [compound 11] had a 50% inhibitory concentration (IC50) in experiment [1] of 665 nM.

`CCOC(=O)[C@]1(c2ccccc2)CC[C@@H](C(=O)N(C)CCCNC(=O)c2ccccc2-c2ccc(C(F)(F)F)cc2)c2ccccc21` [compound 12]: the IC50 in experiment [1] was 23.2 nM; in experiment [2] it was 6.34 nM.

Molecule `CCOC(=O)[C@]1(c2ccccc2)CC[C@H](C(=O)NCCNC(=O)c2ccccc2)c2ccccc21` [compound 13] showed an IC50 in experiment [2] of 5380 nM.

In experiment [2], `CCOC(=O)[C@]1(c2ccccc2)CC[C@H](C(=O)NCCNC(=O)c2ccccc2OC)c2ccccc21` [compound 14] gave an IC50 of 2490 nM.

`CCOC(=O)[C@]1(c2ccccc2)CC[C@H](C(=O)NCCNC(=O)c2ccccc2-c2ccc(C(F)(F)F)cc2)c2ccccc21` [compound 15] showed an IC50 in experiment [2] of 2750 nM.

Consider `CCOC(=O)[C@]1(c2ccccc2)CC[C@H](C(=O)NCCCNC(=O)c2ccccc2)c2ccccc21` [compound 16], for which the IC50 in experiment [1] was 791 nM; in experiment [2] it was > 100 nM.

In the case of `CCOC(=O)[C@]1(c2ccccc2)CC[C@H](C(=O)NCCCNC(=O)c2ccccc2OC)c2ccccc21` [compound 17], the IC50 is 415 nM in experiment [1] and 37.3 nM in experiment [2].

`CCOC(=O)[C@]1(c2ccccc2)CC[C@H](C(=O)NCCCNC(=O)c2ccccc2-c2ccc(C(F)(F)F)cc2)c2ccccc21` [compound 18]: the results for the IC50 in experiment [1] and in experiment [2] were 309 nM and 61.8 nM, respectively.

As for `CCOC(=O)[C@]1(c2ccccc2)CC[C@H](C(=O)N(C)CCNC(=O)c2ccccc2)c2ccccc21` [compound 19], the IC50 was 228 nM in experiment [1] and 131 nM in experiment [2].

With `CCOC(=O)[C@]1(c2ccccc2)CC[C@H](C(=O)N(C)CCNC(=O)c2ccccc2OC)c2ccccc21` [compound 20], the IC50 is > 1000 nM in experiment [1] and 70.6 nM in experiment [2].

For `CCOC(=O)[C@]1(c2ccccc2)CC[C@H](C(=O)N(C)CCNC(=O)c2ccccc2-c2ccc(C(F)(F)F)cc2)c2ccccc21` [compound 21], the IC50 in experiment [1] was 240 nM; in experiment [2] it was 48.2 nM.

As to `CCOC(=O)[C@]1(c2ccccc2)CC[C@H](C(=O)N(C)CCCNC(=O)c2ccccc2)c2ccccc21` [compound 22], the IC50 in experiment [1] is 662 nM; in experiment [2], 16.4 nM.

On to `CCOC(=O)[C@]1(c2ccccc2)CC[C@H](C(=O)N(C)CCCNC(=O)c2ccccc2OC)c2ccccc21` [compound 23], for which the figures for the IC50 in experiment [1] and in experiment [2] were 597 nM and 11.6 nM, respectively.

Regarding `CCOC(=O)[C@]1(c2ccccc2)CC[C@H](C(=O)N(C)CCCNC(=O)c2ccccc2-c2ccc(C(F)(F)F)cc2)c2ccccc21` [compound 24], the IC50 in experiment [1] is 23.2 nM; in experiment [2] it was 6.11 nM.

`CCCOC(=O)[C@]1(c2ccccc2)CC[C@@H](C(=O)N2CCC(NC(=O)c3ccccc3OC)C2)c2ccccc21` (stereo partly shown) [compound 29]: the IC50 in experiment [1] is 104 nM; in experiment [2], 40 nM.

On to `CCCOC(=O)[C@]1(c2ccccc2)CCC(C(=O)N2CC[C@@H](NC(=O)c3cccnc3OC)C2)c2ccccc21` (stereo partly shown) [compound 30], for which the IC50 in experiment [1] is 76.7 nM; in experiment [2], 23.3 nM.

On to `COC(=O)CCNC(=O)[C@]1(c2ccccc2)CC[C@@H](C(=O)N(C)CCCNC(=O)c2ccccc2OC)c2ccccc21` [compound 31], for which the IC50 in experiment [1] is > 1000 nM; in experiment [2], 65.2 nM.

As for `COC(=O)CCNC(=O)[C@]1(c2ccccc2)CC[C@@H](C(=O)N(C)CCCNC(=O)c2cccnc2OC)c2ccccc21` [compound 32], the IC50 was > 1000 nM in experiment [1] and 166 nM in experiment [2].

As for `COC(=O)CCNC(=O)[C@]1(c2ccccc2)CC[C@@H](C(=O)N2CCCC(NC(=O)c3cccnc3OC)CC2)c2ccccc21` (stereo partly shown) [compound 33], the IC50 in experiment [1] was > 1000 nM; in experiment [2] it was 80 nM.

As to `CCCOC(=O)[C@]1(c2ccccc2)CC[C@@H](C(=O)N2CCCC(NC(=O)c3ccccc3OC)CC2)c2ccccc21` (stereo partly shown) [compound 42], the figures for the IC50 in experiment [1] and in experiment [2] were 286 nM and 23 nM, respectively.

Take `COC(=O)CCNC(=O)[C@]1(c2ccccc2)CC[C@@H](C(=O)N2CCOC(CNC(=O)c3cccnc3O)C2)c2ccccc21` (stereo partly shown) [compound 43]: the IC50 in experiment [2] was > 1000 nM.

In the case of `COC(=O)CCNC(=O)[C@]1(c2ccccc2)CC[C@@H](C(=O)N2CCCC(NC(=O)c3ccccc3OC)CC2)c2ccccc21` (stereo partly shown) [compound 44], the IC50 in experiment [2] is 52.8 nM.
